Data published in patent US8637558B2 (Industry-Academic Cooperation Foundation, Chosun University, priority 2008, dated 2014).

What follows are compounds tested against 15-PGDH (Homo sapiens (Human), UniProt P15428) (assay: Assay for the activities of 15-PGDH inhibitors (formation of NADH at 340 nm)). Details: purified 15-PGDH enzyme, 21 μM PGE2, 0.25 mM NAD+, pH 7.5; concentration inhibiting 50% of 15-PGDH activity.
Assay type: biochemical
Experimental: <1-1> Expression and Purification of 15-PGDH
A 15-PGDH cDNA plasmid containing BamHI and EcoRI sites of the pGES-2T expression vector was used to transform Escherichia coli BL-21 lysS in accordance with the ordinarily used in the art. The transformed cells were grown in 500 mL LB medium containing 50 μg/mL ampicillin at 37° C. while being stirred at 220 rpm until the OD600 reached 0.6. Isopropyl β-D-thiogalactoside (1 mM) was added and the cells were allowed to grow for 12 hours at 25° C. Then, the pellets were harvested by centrifugation at 4000×g for 30 minutes at 4° C. The cell pallets were resuspended in 20 mL cell lysis buffer (1×PBS buffer (pH 7.4) containing 1 mM EDTA and 0.1 mM DTT) and sonicated (14×10 s at 4° C.). The disrupted cells were centrifuged at 4000×g for 20 minutes at 4° C. The supernatant was loaded slowly on a glutathione-sepharose 4B column, which was equilibrated at 4° C. with a cell lysis buffer (1×PBS buffer (pH 7.4) containing 1 mM EDTA and 0.1 mM DTT). The column was washed with the lysis buffer until OD280 reached below 0.005. Then, 15-PGDH was eluted from the glutathione-sepharose 4B column at room temperature for 5 minutes by using the elution buffer (50 mM Tris-HCl (pH 8.0) containing 10 mM reduced glutathione, 1 mM EDTA and 0.1 mM DTT). The concentration and the purity of the purified enzyme were determined by SDS-PAGE.
<1-2> Assay for the Activities of 15-PGDH Inhibitors
The absorbance of the reaction mixture was recorded at 340 nm so that the activities of the derivatives according to the present invention as 15-PGDH inhibitors were determined from a standard curve prepared from the absorbance of various concentrations of NADH at 340 nm.

Chain of 15-PGDH (P15428 whole entry): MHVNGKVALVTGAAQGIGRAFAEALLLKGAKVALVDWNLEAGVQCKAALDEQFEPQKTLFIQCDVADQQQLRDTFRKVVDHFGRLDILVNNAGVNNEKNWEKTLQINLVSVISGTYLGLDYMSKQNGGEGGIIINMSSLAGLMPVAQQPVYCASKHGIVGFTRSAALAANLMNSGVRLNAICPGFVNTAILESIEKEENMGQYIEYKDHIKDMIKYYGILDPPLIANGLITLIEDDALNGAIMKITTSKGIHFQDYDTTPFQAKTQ

Row | Compound | IC50 [nM]
1 | O=C1NC(=O)/C(=C/c2ccc(OCCCCC3CCCCC3)c(Cl)c2)S1 [Derivative 33, 5-(3-chloro-4-(4-cyclohexylbutoxy)benzylidene)thiazolidine-2,4-dione] | 26.3
2 | COc1ccc(/C=C2\SC(=O)NC2=O)cc1OCCC1CCCCC1 [Derivative 67, 5-(3-(2-cyclohexylethoxy)-4-methoxybenzylidene)thiazolidine-2,4-dione] | 1160
3 | O=C1NC(=O)C(Cc2ccc(OCC3CCCC3)cc2)S1 (stereo not shown) [Derivative 115, 5-(4-(cyclopentylmethoxy)benzyl)thiazolidine-2,4-dione] | 854
4 | O=C1NC(=O)/C(=C/c2ccc(OCCCC3CCCCC3)c([N+](=O)[O-])c2)S1 [Derivative 12, 5-(4-(3-cyclohexylpropoxy)-3-nitrobenzylidene)thiazolidine-2,4-dione] | 327
5 | O=C1NC(=O)/C(=C/c2ccc(Oc3ccccc3)cc2)S1 [Derivative 54, 5-(4-phenoxybenzylidene)-1,3-thiazolidine-2,4-dione] | > 20000
6 | CC1CCC(COc2ccc(/C=C3\SC(=O)NC3=O)cc2C(F)(F)F)CC1 (stereo not shown) [Derivative 65, 5-[4-((4-methylcyclohexyl)methoxy)-3-(trifluoromethyl)benzylidene]thiazolidine-2,4-dione] | 31.4
7 | O=C1NC(=O)/C(=C/c2cccc(OCCC3CCCC3)c2Cl)S1 [Derivative 107, 5-[2-chloro-3-(2-cyclopentylethoxy)benzylidene]-1,3-thiazolidine-2,4-dione] | 154
8 | O=C1NC(=O)/C(=C/c2cccc(OCCOC3CCCCC3)c2Cl)S1 [Derivative 110, 5-{2-chloro-3-[2-(cyclohexyloxy)ethoxy]benzylidene}-1,3-thiazolidine-2,4-dione] | 233
9 | O=C1NC(=O)C(Cc2ccc(OCCC3CCCCC3)c(Cl)c2)S1 (stereo not shown) [Derivative 120, 5-(3-chloro-4-(2-cyclohexylethoxy)benzyl)thiazolidine-2,4-dione] | 173
10 | O=C1NC(=O)C(Cc2ccc(OCCN3CCS(=O)(=O)CC3)cc2)S1 (stereo not shown) [Derivative 126, 5-(4-(2-thiomorpholine-1,1-Dioxideethoxy)benzyl)-2,4-thiazolidinedione] | 1390
11 | O=C1NC(=O)/C(=C/c2ccc(OCc3ccco3)cc2)S1 [Derivative 25, 5-(4-(furan-2-ylmethoxy)benzylidene)thiazolidine-2,4-dione] | 1880
12 | O=C1NC(=O)/C(=C/c2ccc(OCCC3CCCC3)cc2)S1 [Derivative 24, 5-(4-(2-cyclopentylethoxy)benzylidene)thiazolidine-2,4-dione] | 115
13 | Cc1ccc(COc2ccc(/C=C3\SC(=O)NC3=O)cc2)cc1 [Derivative 27, 5-(4-(4-methylbenzyloxy)benzylidene)thiazolidine-2,4-dione] | 255
14 | O=C1NC(=O)/C(=C/c2ccc(OC3CCCCC3)c(Cl)c2)S1 [Derivative 30, 5-(3-chloro-4-(cyclohexyloxy)benzylidene)thiazolidine-2,4-dione] | 48.9
15 | O=C1NC(=O)/C(=C/c2ccc(OCCc3cccs3)c(Cl)c2)S1 [Derivative 101, 5-(3-chloro-4-(2-(thiophen-2-yl)ethoxy)benzylidene)thiazolidine-2,4-dione] | 84.1
16 | O=C1NC(=O)/C(=C/c2cccc(OCc3ccc([N+](=O)[O-])cc3)c2Cl)S1 [Derivative 109, 5-(2-chloro-3-(4-nitrobenzyloxy)benzylidene)thiazolidine-2,4-dione] | 11700
17 | O=C1NC(=O)/C(=C/c2ccc([N+](=O)[O-])c(OCCC3CCCCC3)c2)S1 [Derivative 79, 5-(3-(2-cyclohexylethoxy)-4-nitrobenzylidene)thiazolidine-2,4-dione] | 2820

Row | Compound | IC50 [nM]
18 | O=C1NC(=O)C(Cc2ccc(OCC3CCCCC3)c(Cl)c2)S1 (single isomer, unassigned) | 125
19 | O=C1NC(=O)/C(=C/c2ccc(OCCc3ccccc3)cc2Cl)S1 [Derivative 86, 5-(2-chloro-4-phenylethoxybenzylidene)thiazolidine-2,4-dione] | 178
20 | O=C1NC(=O)/C(=C/c2cccc(OCCCc3ccccc3)c2Cl)S1 [Derivative 75, 5-(2-chloro-3-(3-phenylpropoxy)benzylidene)thiazolidine-2,4-dione] | 44.9
21 | O=C1NC(=O)/C(=C/c2ccc(OCCN3CCS(=O)(=O)CC3)c([N+](=O)[O-])c2)S1 [Derivative 90, 5-[3-nitro-4-(2-thiomorpholine1,1-Dioxideethoxy)benzylidene]-2,4-thiazolidinedione] | 2450
22 | O=C1NC(=O)C(Cc2ccc(OCc3ccc(-c4ccccc4)cc3)cc2)S1 (stereo not shown) [Derivative 129, 5-(4-(biphenyl-4-ylmethoxy)benzyl)thiazolidine-2,4-dione] | 1080
23 | O=C1NC(=O)/C(=C/c2ccc(OCCC3CCCCC3)c(C(F)(F)F)c2)S1 [Derivative 16, 5-(4-(2-cyclohexylethoxy)-3-(trifluoromethyl)benzylidene)thiazolidine-2,4-dione] | 71.9
24 | O=C1NC(=O)/C(=C/c2ccc(OC3CCCCC3)cc2Cl)S1 [Derivative 95, 5-(2-chloro-4-(cyclohexyloxy)benzylidene)thiazolidine-2,4-dione] | 233
25 | O=C1NC(=O)C(Cc2ccc(OCC3CCCC3)cc2)S1 (stereo not shown) [Derivative 123, 5-(4-(cyclopentylmethoxy)benzyl)thiazolidine-2,4-dione] | 205
26 | COc1ccc(COc2ccc(/C=C3\SC(=O)NC3=O)cc2)cc1 [Derivative 28, 5-(4-(4-methoxybenzyloxy)benzylidene)thiazolidine-2,4-dione] | 728
27 | O=C1NC(=O)/C(=C/c2ccc(OCCC3CCCCC3)c(F)c2)S1 [Derivative 20, 5-(4-(2-cyclohexylethoxy)-3-fluorobenzylidene)thiazolidine-2,4-dione] | 50.8
28 | O=C1NC(=O)/C(=C/c2ccc(OCCC3CCCCC3)c([N+](=O)[O-])c2)S1 [Derivative 49, 5-(4-(2-cyclohexylethoxy)-3-nitrobenzylidene)thiazolidine-2,4-dione] | 59.5
29 | O=C1NC(=O)/C(=C/c2ccc(OCCCc3ccccc3)c(Cl)c2)S1 [Derivative 70, 5-(3-chloro-4-(3-phenylpropoxy)benzylidene)thiazolidine-2,4-dione] | 38.1
30 | O=C1NC(=O)/C(=C/c2ccc(OCCCC3CCCCC3)c(Cl)c2)S1 [Derivative 32, 5-(3-chloro-4-(3-cyclohexylpropoxy)benzylidene)thiazolidine-2,4-dione] | 10.3
31 | COc1cc(/C=C2\SC(=O)NC2=O)cc(OC)c1OCCC1CCCCC1 [Derivative 10, 5-(4-(2-cyclohexylethoxy)-3,5-dimethoxybenzylidene)thiazolidine-2,4-dione] | 94.5
32 | COc1cc(OCCC2CCCCC2)ccc1/C=C1\SC(=O)NC1=O [Derivative 60, 5-(4-(2-cyclohexylethoxy)-2-methoxybenzylidene)thiazolidine-2,4-dione] | 3560
33 | O=C1NC(=O)C(Cc2ccc(OCCC3CCCCC3)cc2Cl)S1 (stereo not shown) [Derivative 127, 5-(2-chloro-4-(2-cyclohexylethoxy)benzyl)thiazolidine-2,4-dione] | 158
34 | O=C1NC(=O)C(Cc2ccc(OCCC3CCCCC3)cc2)S1 (stereo not shown) [Derivative 113, 5-(4-(2-cyclohexylethoxy)benzyl)thiazolidine-2,4-dione] | 977
